Source: patent US20100098641A1, “Monophosphates as Mutual Prodrugs of Anti-Inflammatory Signal Transduction Modulators (AISTM's) and Beta-Agonists for the Treatment of Pulmonary Inflammation and Bronchoconstriction” (priority 2006, published 2010)
Like-named read-outs stand apart in the source and are kept apart here.

Key:
[1] = Half life of mutual prodrug in reaction buffer only (pH 7.4 tris/Mg2+/Zn2+); type: physicochemical; details: reaction buffer without alkaline phosphatase, reaction buffer pH 7.4, no ALP
Procedure: Reaction Buffer (pH 7.4, 5 mM tris/1 mM Mg^2+/1 mM Zn^2+)
(§1) The heat block was set at the 37 degrees. Then 0.5 mL of alkaline phosphatase solution was added into 4 preheated Eppendorf tubes. The aliquot 0.5 of prodrug and drug standards were added into preheated Eppendorf tubes. Immediately after vortexing the aliquots of 25 μL of the all reaction solutions were made into the respective 96-well plate positions. The internal standard (75 μl of 500 ng/mL Glyburide) was added into all samples after each aliquots. That procedure was repeated at every 15 minute intervals for ˜4-5 hours.
(§2) In the calculation of half life, we assumed that the disappearance of the mutual prodrug of this invention followed first order kinetics. Therefore,
(§3) The area peak ratio of prodrug vs IS was plotted against time first; the peak area ratios of later time points were normalized with the peak area ratio of initial time point (ASAP). The natural log of the normalized ratio was then plotted against time to generate a linear curve. The slope of this linear curve k was used for the following calculation.
Drug concentrations are calculated by normalizing the peak area ration to (t 0). Thus, calculated drug concentrations at any time point=normalized peak area ratio [t (0) mean/t mean]multiplied initial drug concentration. […]

alkaline phosphatase = alkaline phosphatase (Homo sapiens, UniProt P05187); assay: Conversion of mutual prodrugs to salmeterol and AISTM drug after exposure to alkaline phosphatase in vitro (LCMS); type: in vitro ADME; details: for Calculated Compound Final Conc. (μM) at 270 mins.: 270 mins in ALP; for half-life at 0.1 mg/mL / half-life at 111.7 μM: human, alkaline phosphatase (Sigma P-3895) in reaction buffer, read-out: Half Life t1/2; for Example 37 in ALP (Peak Area Ratio) Normalized / Example 37 in ALP (Peak Area Ratio) mean / Example 29 in ALP (Peak Area Ratio) Normalized / Example 29 in ALP (Peak Area Ratio) mean: 37 degrees; for half-life at 111.7 μM: Table 1b
Procedure: Conversion of the Mutual AISTM-β-Agonist Prodrugs (Described in Examples 29 and 37) to Salmeterol and Respective AISTM Drugs after Exposure to Alkaline Phosphatase In Vitro
Reaction Buffer (pH 7.4, 5 mM tris/1 mM Mg^2+/1 mM Zn^2+) […]
Dissolved ˜2 mg of the mutual prodrug of invention in 10 ml 1:1 acetonitrile/water.
Dissolved ˜2 mg of each MRA and β-agonist in 20 ml 1:1 acetonitrile/water
The stock solutions were mixed in microcentrifuge tubes, as depicted in the following Table:
as §1
The 96-well plates were then analyzed using the LCMS technique.
as §2, §3
Drug concentrations are calculated by normalizing the peak area ration to (t 0). Thus, calculated drug concentrations at any time point=normalized peak area ratio [t (0) mean/t mean]multiplied initial drug concentration. Data (normalized peak area ratio) for the calculations of drug concentrations are listed in Table 1a (ALP activation) and 1b (half-life in ALP and buffer only) for the compound prepared in Example 29, salmeterol, and the ARRY-797 compound (Munson et al., 2004) and Table 2a (ALP activation) and 2b (half-life in ALP and buffer only)) for the compound prepared in Example 37, salmeterol, and the PDE4 inhibitor, CDP-840 (Alexander et al., 2002).

Chain of alkaline phosphatase (P05187 23-506): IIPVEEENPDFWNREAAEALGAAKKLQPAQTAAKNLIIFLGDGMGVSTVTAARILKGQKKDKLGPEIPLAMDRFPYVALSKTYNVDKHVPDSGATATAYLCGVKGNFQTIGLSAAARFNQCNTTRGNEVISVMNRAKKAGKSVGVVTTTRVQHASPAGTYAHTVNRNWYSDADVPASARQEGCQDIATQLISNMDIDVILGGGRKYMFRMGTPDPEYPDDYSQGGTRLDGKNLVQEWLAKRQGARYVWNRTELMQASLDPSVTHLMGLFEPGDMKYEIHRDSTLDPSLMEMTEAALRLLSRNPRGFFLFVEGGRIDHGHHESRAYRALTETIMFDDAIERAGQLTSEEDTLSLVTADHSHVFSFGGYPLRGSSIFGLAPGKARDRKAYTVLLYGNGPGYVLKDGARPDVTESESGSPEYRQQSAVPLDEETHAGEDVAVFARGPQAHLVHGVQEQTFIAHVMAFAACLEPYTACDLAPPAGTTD

SMILES: COc1ccc([C@H](Cc2cc[n+](Cc3ccc(C(O)CNCCCCCCOCCCCc4ccccc4)cc3OP(=O)(O)O)cc2)c2ccccc2)cc1OC1CCCC1 (stereo in doubt) [Example 37, 4-[2-(3-Cyclopentyloxy-4-methoxy-phenyl)-2-phenyl-ethyl]-1-(4-{1-hydroxy-2-[6-(4-phenyl-butoxy)-hexylamino]-ethyl}-2-phosphonooxy-benzyl)-pyridinium]
- half-life ([1]; Table 2b): 6.42 h
- Half Life t1/2 (alkaline phosphatase; ALP Enzyme Conc. 0.224 mg/mL, Table 2b, first order kinetics assumed): 0.925 h
- Calculated Compound Final Conc. (μM) at 270 mins. (alkaline phosphatase; added initial conc. 117.4 μM in reaction mixture): 1.9 µM
- half-life at 0.1 mg/mL (alkaline phosphatase; pH 7.4, ALP Enzyme Conc. 0.224 mg/mL, Table 2b, first order kinetics assumed): 0.775 h
- half-life at 0.1 mg/mL (alkaline phosphatase; pH 7.4, ALP Enzyme Conc. 0.443 mg/mL, Table 2b, first order kinetics assumed): 0.41 h
- Example 37 in ALP (Peak Area Ratio) Normalized (alkaline phosphatase; time 0 mins): 1.0000
- Example 37 in ALP (Peak Area Ratio) mean (alkaline phosphatase; time 0 mins): 0.8115
- Example 37 in ALP (Peak Area Ratio) Normalized (alkaline phosphatase; time 15.0 mins): 0.5126
- Example 37 in ALP (Peak Area Ratio) mean (alkaline phosphatase; time 15.0 mins): 0.4160
- Example 37 in ALP (Peak Area Ratio) Normalized (alkaline phosphatase; time 30.0 mins): 0.2705
- Example 37 in ALP (Peak Area Ratio) mean (alkaline phosphatase; time 30.0 mins): 0.2195
- Example 37 in ALP (Peak Area Ratio) Normalized (alkaline phosphatase; time 45.0 mins): 0.1719
- Example 37 in ALP (Peak Area Ratio) mean (alkaline phosphatase; time 45.0 mins): 0.1395
- Example 37 in ALP (Peak Area Ratio) Normalized (alkaline phosphatase; time 60.0 mins): 0.1280
- Example 37 in ALP (Peak Area Ratio) mean (alkaline phosphatase; time 60.0 mins): 0.1039
- Example 37 in ALP (Peak Area Ratio) Normalized (alkaline phosphatase; time 75.0 mins): 0.0974
- Example 37 in ALP (Peak Area Ratio) mean (alkaline phosphatase; time 75.0 mins): 0.0791
- Example 37 in ALP (Peak Area Ratio) Normalized (alkaline phosphatase; time 90.0 mins): 0.0752
- Example 37 in ALP (Peak Area Ratio) mean (alkaline phosphatase; time 90.0 mins): 0.0610
- Example 37 in ALP (Peak Area Ratio) Normalized (alkaline phosphatase; time 105 mins): 0.0630
- Example 37 in ALP (Peak Area Ratio) mean (alkaline phosphatase; time 105 mins): 0.0511
- Example 37 in ALP (Peak Area Ratio) Normalized (alkaline phosphatase; time 120 mins): 0.0478
- Example 37 in ALP (Peak Area Ratio) mean (alkaline phosphatase; time 120 mins): 0.0388
- Example 37 in ALP (Peak Area Ratio) Normalized (alkaline phosphatase; time 135 mins): 0.0439
- Example 37 in ALP (Peak Area Ratio) mean (alkaline phosphatase; time 135 mins): 0.0357
- Example 37 in ALP (Peak Area Ratio) Normalized (alkaline phosphatase; time 150 mins): 0.0322
- Example 37 in ALP (Peak Area Ratio) mean (alkaline phosphatase; time 150 mins): 0.0262
- Example 37 in ALP (Peak Area Ratio) Normalized (alkaline phosphatase; time 165 mins): 0.0296
- Example 37 in ALP (Peak Area Ratio) mean (alkaline phosphatase; time 165 mins): 0.0240
- Example 37 in ALP (Peak Area Ratio) Normalized (alkaline phosphatase; time 180 mins): 0.0275
- Example 37 in ALP (Peak Area Ratio) mean (alkaline phosphatase; time 180 mins): 0.0224
- Example 37 in ALP (Peak Area Ratio) Normalized (alkaline phosphatase; time 210 mins): 0.0227
- Example 37 in ALP (Peak Area Ratio) mean (alkaline phosphatase; time 210 mins): 0.0184
- Example 37 in ALP (Peak Area Ratio) Normalized (alkaline phosphatase; time 240 mins): 0.0198
- Example 37 in ALP (Peak Area Ratio) mean (alkaline phosphatase; time 240 mins): 0.0161
- Example 37 in ALP (Peak Area Ratio) Normalized (alkaline phosphatase; time 270 mins): 0.0161
- Example 37 in ALP (Peak Area Ratio) mean (alkaline phosphatase; time 270 mins): 0.0131

SMILES: CC(C)Cn1ncc2cc(Oc3ccc(F)cc3F)c(C(=O)NCC[N+](C)(C)Cc3cc(C(O)CNCCCCCCOCCCCc4ccccc4)ccc3OP(=O)(O)O)cc21 (stereo not shown) [Example 29, (2-{[5-(2,4-Difluoro-phenoxy)-1-isobutyl-1H-indazole-6-carbonyl]-amino}-ethyl)-(5-{-hydroxy-2-[6-(4-phenyl-butoxy)-hexylamino]-ethyl}-2-phosphonooxy-benzyl)-dimethyl-ammonium]
- half-life ([1]; Table 1b): 57.8 h
- Calculated Compound Final Conc. (μM) at 270 mins. (alkaline phosphatase; added initial conc. 111.7 μM in reaction mixture): 57.5 µM
- half-life at 111.7 μM (alkaline phosphatase; pH 7.4, ALP Enzyme Conc. 0.224 mg/mL, first order kinetics assumed): 5.78 h
- half-life at 111.7 μM (alkaline phosphatase; pH 7.4, ALP Enzyme Conc. 0.443 mg/mL, first order kinetics assumed): 2.36 h
- Example 29 in ALP (Peak Area Ratio) Normalized (alkaline phosphatase; time 0 mins): 1.0000
- Example 29 in ALP (Peak Area Ratio) mean (alkaline phosphatase; time 0 mins): 2.3900
- Example 29 in ALP (Peak Area Ratio) Normalized (alkaline phosphatase; time 15.0 mins): 0.9289
- Example 29 in ALP (Peak Area Ratio) mean (alkaline phosphatase; time 15.0 mins): 2.2200
- Example 29 in ALP (Peak Area Ratio) Normalized (alkaline phosphatase; time 30.0 mins): 0.9247
- Example 29 in ALP (Peak Area Ratio) mean (alkaline phosphatase; time 30.0 mins): 2.2100
- Example 29 in ALP (Peak Area Ratio) Normalized (alkaline phosphatase; time 45.0 mins): 0.8368
- Example 29 in ALP (Peak Area Ratio) mean (alkaline phosphatase; time 45.0 mins): 2.0000
- Example 29 in ALP (Peak Area Ratio) Normalized (alkaline phosphatase; time 60.0 mins): 0.7552
- Example 29 in ALP (Peak Area Ratio) mean (alkaline phosphatase; time 60.0 mins): 1.8050
- Example 29 in ALP (Peak Area Ratio) Normalized (alkaline phosphatase; time 75.0 mins): 0.7050
- Example 29 in ALP (Peak Area Ratio) mean (alkaline phosphatase; time 75.0 mins): 1.6850
- Example 29 in ALP (Peak Area Ratio) Normalized (alkaline phosphatase; time 90.0 mins): 0.6402
- Example 29 in ALP (Peak Area Ratio) mean (alkaline phosphatase; time 90.0 mins): 1.5300
- Example 29 in ALP (Peak Area Ratio) Normalized (alkaline phosphatase; time 105 mins): 0.6109
- Example 29 in ALP (Peak Area Ratio) mean (alkaline phosphatase; time 105 mins): 1.4600
- Example 29 in ALP (Peak Area Ratio) Normalized (alkaline phosphatase; time 120 mins): 0.6402
- Example 29 in ALP (Peak Area Ratio) mean (alkaline phosphatase; time 120 mins): 1.5300
- Example 29 in ALP (Peak Area Ratio) Normalized (alkaline phosphatase; time 135 mins): 0.6192
- Example 29 in ALP (Peak Area Ratio) mean (alkaline phosphatase; time 135 mins): 1.4800
- Example 29 in ALP (Peak Area Ratio) Normalized (alkaline phosphatase; time 150 mins): 0.5941
- Example 29 in ALP (Peak Area Ratio) mean (alkaline phosphatase; time 150 mins): 1.4200
- Example 29 in ALP (Peak Area Ratio) Normalized (alkaline phosphatase; time 165 mins): 0.5879
- Example 29 in ALP (Peak Area Ratio) mean (alkaline phosphatase; time 165 mins): 1.4050
- Example 29 in ALP (Peak Area Ratio) Normalized (alkaline phosphatase; time 180 mins): 0.5439
- Example 29 in ALP (Peak Area Ratio) mean (alkaline phosphatase; time 180 mins): 1.3000
- Example 29 in ALP (Peak Area Ratio) Normalized (alkaline phosphatase; time 210 mins): 0.5146
- Example 29 in ALP (Peak Area Ratio) mean (alkaline phosphatase; time 210 mins): 1.2300
- Example 29 in ALP (Peak Area Ratio) Normalized (alkaline phosphatase; time 240 mins): 0.4916
- Example 29 in ALP (Peak Area Ratio) mean (alkaline phosphatase; time 240 mins): 1.1750
- Example 29 in ALP (Peak Area Ratio) Normalized (alkaline phosphatase; time 270 mins): 0.5146
- Example 29 in ALP (Peak Area Ratio) mean (alkaline phosphatase; time 270 mins): 1.2300
